Reference: ChEMBL document CHEMBL3137667, “[Drug-induced liver injury; fourteenth updated edition of the bibliographic database of liver injuries and related drugs]” (Gastroenterol Clin Biol, 2004)

Columns and labels:
[1] = human, serum, 4383 h
[2] = Presence of at least one case with successful reintroduction. [column 'REINT' in source]; conditions: human
[3] = human, serum
[4] = human
[5] = human; remark: listed apart in the source
[6] = Times to onset, minimal and maximal, observed in the indexed observations. [column 'DELAI' in source]; conditions: human
[7] = Proposed mechanism(s) of liver damage. [column 'MEC' in source]; conditions: human
[8] = Comments (NB not yet translated). [column 'COMMENTAIRES' in source]; conditions: human
[9] = human, serum; remark: listed apart in the source
[10] = human; remark: listed apart in the source
[11] = human; remark: listed apart in the source
[12] = human; remark: listed apart in the source
[13] = human; remark: listed apart in the source
[14] = human; remark: listed apart in the source
[15] = human; remark: listed apart in the source
[16] = human; remark: listed apart in the source
[17] = Highest frequency of moderate liver toxicity observed during clinical trials, expressed as a percentage. [column '% BIOL' in source]; conditions: human
[18] = Highest frequency of acute liver toxicity observed during clinical trials, expressed as a percentage. [column '% AIGUE' in source]; conditions: human
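For Hepatotoxicity (association with vascular disease) in this document: count of indexed literature references reporting vascular liver injury in humans, e.g. peliosis hepatitis, hepatic veno-occlusive disease or Budd-Chiari syndrome.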
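For Hepatotoxicity (benign tumour) in this document: value is a count of indexed literature references citing a benign tumour confirmed by histopathology.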
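For Hepatotoxicity (choleostasis) in this document: human cholestatic liver injury, shown by histopathology or by peak ALT or AST elevation over alkaline phosphatase ratio below 2, value counts indexed literature reports.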
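For Hepatotoxicity (chronic liver disease) in this document: chronic liver injury confirmed by histopathology or persistently raised serum aminotransferase activity beyond 6 months, value given as the count of indexed literature references.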
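For Hepatotoxicity (cirrhosis) in this document: value is a count of indexed literature references reporting cirrhosis confirmed by histopathology.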
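For Hepatotoxicity (cytolytic) in this document: human cytolytic liver injury, shown by histopathology or by a ratio above 5 of peak ALT or AST elevation to alkaline phosphatase elevation, value counts indexed references.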
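For Hepatotoxicity (granulomatous hepatitis) in this document: value is a count of indexed literature references reporting granulomatous liver disease confirmed by histopathology.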
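For Hepatotoxicity (malignant tumour) in this document: malignant tumour confirmed by histopathology, value gives the count of indexed literature references reporting it.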
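For Hepatotoxicity (severe hepatitis) in this document: human clinical data: severe hepatitis, meaning potentially life-threatening liver failure or clinically observed cases, the value counts how many indexed literature references report it.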
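For Hepatotoxicity (steatosis) in this document: steatosis confirmed by histopathology, value is the count of indexed references.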

Structure (SMILES) | Hepatotoxicity (chronic liver disease) [1] | Hepatotoxicity (successful reintroduction) [2] | Hepatotoxicity (moderate) [3] | Hepatotoxicity (steatosis) [4] | Hepatotoxicity (severe hepatitis) [5] | Hepatotoxicity (time to onset) [6] | Hepatotoxicity (mechanism) [7] | Hepatotoxicity (comment) [8] | Hepatotoxicity (acute) [9] | Hepatotoxicity (association with vascular disease) [10] | Hepatotoxicity (cirrhosis) [11] | Hepatotoxicity (benign tumour) [12] | Hepatotoxicity (choleostasis) [13] | Hepatotoxicity (cytolytic) [14] | Hepatotoxicity (malignant tumour) [15] | Hepatotoxicity (granulomatous hepatitis) [16] | Hepatotoxicity (moderate) [17] [%] | Hepatotoxicity (acute) [18] [%] | further results
CCOC(=O)[C@H](CCc1ccccc1)N[C@@H](C)C(=O)N1CCC[C@H]1C(=O)O | 0 | yes | 9 | 0 | 3 | 10 days - 3 years | Allergic | DUCTOPENIE RC/CAPTOPRIL | 13 | 0 | 0 | 0 | 4 | 7 | 0 | 0 | 2.8 | 0 | 
CC[C@H]1OC(=O)[C@H](C)[C@@H](O[C@H]2C[C@@](C)(OC)[C@@H](O)[C@H](C)O2)[C@H](C)[C@@H](O[C@@H]2O[C@H](C)C[C@H](N(C)C)[C@H]2O)[C@](C)(O)C[C@@H](C)C(=O)[C@H](C)[C@@H](O)[C@]1(C)O [ERYTHROMYCIN] | 0 | yes | 19 | 0 | 1 | 12 hours - 5 weeks | Allergic, Toxic | CHOLANGITE #CBP RC/AMOXICILLINE/TROLEANDOMYCINE | 72 | 0 | 0 | 0 | 55 | 20 | 0 | 0 | 38 | 3 | 
CC(C)(S)[C@@H](N)C(=O)O [PENICILLAMINE] | 1 | yes | 12 | 5 | 0 | 4 days - 2 years | Allergic | CHOLESTASE_PROLONGEE CHOLANGITE | 31 | 0 | 0 | 0 | 28 | 5 | 0 | 2 | 6 | 0 | 
CC1(C)S[C@@H]2[C@H](NC(=O)[C@H](N)c3ccccc3)C(=O)N2[C@H]1C(=O)O [AMPICILLIN] | 0 | yes | 7 | 0 | 1 | 2 days - 2 weeks | Allergic | #CBP CHOLECYSTITE_ACALCULEUSE | 9 | 0 | 0 | 0 | 4 | 3 | 0 | 0 | 20 | 0 | 
O=C1NC(=O)C(c2ccccc2)(c2ccccc2)N1 [PHENYTOIN] | 6 | yes | 29 | 4 |  | 1 day - 11 years |  | #MNI CHOLESTASE_PROLONGEE DUCTOPENIE #CBP | 84 | 0 | 0 | 0 |  |  | 0 |  |  |  | Hepatotoxicity (severe hepatitis) ([5]; Liver): 14; Hepatotoxicity (mechanism) ([7]; Liver): Allergic, Reactive metabolite; Hepatotoxicity (choleostasis) ([13]; Liver): 30; Hepatotoxicity (cytolytic) ([14]; Liver): 53; Hepatotoxicity (granulomatous hepatitis) ([16]; Liver): 5; Hepatotoxicity (moderate) ([17]; Liver): 90%; Hepatotoxicity (acute) ([18]; Liver): 2%
COc1ccc2c(C(=O)c3ccc(Cl)cc3)c(C)n(CC(=O)O)c2c1 [CLOMETACIN] | 21 | yes | 6 | 0 | 9 | 1 week - 10 years | Allergic | AC_ANTI-ADN/-ML HLAB8 | 18 | 0 | 9 | 0 | 12 | 14 | 0 | 0 | 0 | 0 | 
